Publication PMC7496872 (Chemmedchem, 2020)

Tests used:
[1] = molecular target: T1, TLR2/1 (Homo sapiens, UniProt O60603); experiment: TLR2/1 (Pam3CSK4)-induced NF-κB/AP-1 SEAP reporter in HEK-Blue hTLR2 cells; assay type: cell-based; conditions: for IC50 / TLR2-mediated NF-κB activation in primary screen, TLR2/1 (in words): Pam3CSK4 10 ng/mL; for IC50: HEK-Blue hTLR2 cells, n=3, 95 % confidence interval in brackets; for Pam3CSK4-induced TLR2/1 response (remaining): compound at 50 μM, 1 h pre-incubation, Pam3CSK4 10 ng/mL 24 h; for TLR2-mediated NF-κB activation in primary screen, TLR2/1 (in words): Figure 3A
T1 construct: host or cells: HEK-Blue hTLR2 cells
Procedure: (§1) Figure 3 Inhibition of TLR2‐dependent NF‐κB activation and IL‐8 secretion. A) HEK‐Blue hTLR2 cells were pre‐incubated with CU‐CPT22 or compounds 1–6 and 9–11 for 1 h and then stimulated additionally with TLR2/1 agonist Pam3CSK4 (10 ng/mL) or TLR2/6 agonist Pam2CSK4 (1 ng/mL) for 24 h. B) HEK‐Blue hTLR2 cells were pre‐incubated with increasing concentrations of 4, 6, 9, 10 and then stimulated additionally with Pam3CSK4 or Pam2CSK4 for 24 h. Supernatants were tested for TLR2‐mediated NF‐κB/AP‐1 activity by quantification of SEAP release (OD640). C) THP‐1 macrophages were incubated with CU‐CPT22 (25 μM) or compound 6 for 1 h and afterwards stimulated with Pam3CSK4 (10 ng/mL), Pam2CSK4 (1ng/mL), LPS (10 ng/mL), flagellin (1 μg/mL), CL075 (8 μM) or ODN2006 (5 μM) for 24 h. Supernatants were analyzed for IL‐8 secretion by ELISA. Mean+SD or ±SD (n=3).
(§2) Cell culture: Human embryonic kidney (HEK)‐Blue hTLR2 cells (InvivoGen, Touluse, France) were used from passage 5 to 20. Stimulation of the cells with TLR2 agonists leads to production and secretion of NF‐κB‐inducible embryonic alkaline phosphatase (SEAP). The enzyme transforms the substrate QUANTI‐Blue (InvivoGen) into a blue dye that was detected by optical density (OD) at 640 nm as previously described.11a, 12 THP‐1 cells (DSMZ, Braunschweig, Germany) from passage 10 to 15 were cultured as previously reported.13 For the generation of THP‐1 macrophages, THP‐1 monocytes were first incubated with 25 ng/mL Phorbol 12‐myristate 13‐acetate (PMA, Sigma‐Aldrich) for 48 h and afterwards rested for 24 h. The cell lines were cultured at 37 °C in a humidified atmosphere of 5 % CO2 and 95 % air and were regularly tested negative for mycoplasma contamination (VenorGeM Classic Mycoplasma PCR detection kit, Minerva Biolabs, Berlin, Germany).
(§3) Cell stimulation: HEK‐Blue hTLR2 cells (4×10^4 cells/well) and THP‐1 macrophages (2×10^5 cells/well) were cultured in 96‐well plates and 24‐well plates (TPP, Trasadingen, Switzerland). After cells were washed with phosphate‐buffered saline (PBS, Sigma‐Aldrich), cell stimulation was done in OptiMEM (ThermoFisher Scientific). The tested compounds and CU‐CPT22 (50 mM) were dissolved in DMSO. Final DMSO concentrations in cell culture were below 0.2 % (v/v). […] For co‐stimulation of TLR2 agonists and tested modulators, cells were preincubated with the compounds or CU‐CPT22 for 1 h and afterwards stimulated with the agonists.
(§4) Statistical analysis: Data of the bar charts are shown as mean+SD. Potency (IC50) data are presented as mean with the confidence interval (95 %). Statistical analysis was done by using GraphPad Prism 6.0 (GraphPad software, San Diego, USA). Nonlinear regression was used to plot and analyze concentration‐response curves and to obtain IC50 values.

[2] = molecular target: T2, TLR2/6 (Homo sapiens, UniProt O60603); experiment: TLR2/6 (Pam2CSK4)-induced NF-κB/AP-1 SEAP reporter in HEK-Blue hTLR2 cells; assay type: cell-based; conditions: for IC50 / TLR2-mediated NF-κB activation in primary screen, TLR2/6 (in words): Pam2CSK4 1 ng/mL; for IC50: HEK-Blue hTLR2 cells, n=3, 95 % confidence interval in brackets; for Pam2CSK4-induced TLR2/6 response (remaining): compound at 50 μM, 1 h pre-incubation, Pam2CSK4 1 ng/mL 24 h; for TLR2-mediated NF-κB activation in primary screen, TLR2/6 (in words): Figure 3A
T2 construct: host or cells: HEK-Blue hTLR2 cells
Procedure: as §1, §2, §3, §4

[3] = tested on: HEK-Blue hTLR2 cells; experiment: Cell viability by MTT assay; assay type: cell-based, human; conditions: 24 h
Procedure: Cell viability: Cell viability was assessed by the MTT assay in HEK Blue hTLR2 cells as previously described.14 10 % (v/v) DMSO (Carl Roth) served as control and the viability of untreated cells was defined as 100 %.
(§5) 1.1 Supplementary Figure 1: Agonistic activity and cell viability […]
(§6) up to 50 µM. (A) HEK-Blue hTLR2 cells were stimulated with Pam3CSK4 (10 ng/ml) or the compounds 1-9 for 24 h. SEAP production was detected by QUANTI-Blue as OD at 640 nm. (B) HEK-Blue hTLR2 cells were stimulated with DMSO (10% v/v) or the compounds for 24 h. Cell viability was determined by MTT assay and normalized to unstimulated cells (dashed line). Mean +SD (n=3).
(1 picture or pasted object on this page, not shown here)

[4] = Chemical stability toward oxidation; assay type: physicochemical; conditions: aerobic conditions; 7 and 8 on debenzylation of the protected intermediates
From the text: Aromatic ketone 5, in which the amide linker between two benzene rings is replaced by a ketomethylene unit, was obtained via the direct C‐acylation of resorcinol (1,3‐diphenol) with 3,4‐dimethoxy‐phenyl acetic acid using boron trifluoride diethyl etherate as the activating Lewis acid in 19 % yield. Compounds 1–6 were isolated with >95 % purity by column chromatography. Synthesis of the trihydroxy‐derivatives, ethyl 3‐(2,3,4‐trihydroxy‐benzamido)benzoate 7 and ethyl 3‐(3,4,5‐trihydroxy‐benzamido)benzoate 8 was attempted following the same strategy as in Scheme 2. […] 7 and 8 therefore could not be isolated and tested biologically.

[5] = molecular target: T3, TLR2 (Homo sapiens, UniProt O60603); experiment: Agonistic TLR2 activity, SEAP production in HEK-Blue hTLR2 cells; assay type: cell-based; conditions: compounds alone for 24 h, SEAP OD 640 nm
T3 construct: host or cells: HEK-Blue hTLR2 cells
Procedure: as §2, §5
as §6, with “(n=3). […]” for “(n=3).”

[6] = tested on: other TLR subtypes; experiment: IL-8 secretion (ELISA) in THP-1 macrophages stimulated with agonists of other TLRs; assay type: cell-based, human; conditions: LPS, flagellin, CL075 or ODN2006 for 24 h
Procedure: as §1, with “C) THP‐1 macrophages were incubated with CU‐CPT22 (25 μM) or compound 6 for 1 h and afterwards stimulated with Pam3CSK4 (10 ng/mL), Pam2CSK4 (1ng/mL), LPS (10 ng/mL), flagellin (1 μg/mL), CL075 (8 μM) or ODN2006 (5 μM) for 24 h.” left out, “Mean+SD or ±SD (n=3).” left out
Cell culture: Human embryonic kidney (HEK)‐Blue hTLR2 cells (InvivoGen, Touluse, France) were used from passage 5 to 20. […] The enzyme transforms the substrate QUANTI‐Blue (InvivoGen) into a blue dye that was detected by optical density (OD) at 640 nm as previously described.11a, 12 THP‐1 cells (DSMZ, Braunschweig, Germany) from passage 10 to 15 were cultured as previously reported.13 For the generation of THP‐1 macrophages, THP‐1 monocytes were first incubated with 25 ng/mL Phorbol 12‐myristate 13‐acetate (PMA, Sigma‐Aldrich) for 48 h and afterwards rested for 24 h. […]
ELISA: Commercially available ELISA kits were used for detecting human IL‐8 levels in cell culture supernatants (ELISA‐Ready Set Go, Invitrogen by Thermo Fisher Scientific).

T2 sequence (O60603 21-784): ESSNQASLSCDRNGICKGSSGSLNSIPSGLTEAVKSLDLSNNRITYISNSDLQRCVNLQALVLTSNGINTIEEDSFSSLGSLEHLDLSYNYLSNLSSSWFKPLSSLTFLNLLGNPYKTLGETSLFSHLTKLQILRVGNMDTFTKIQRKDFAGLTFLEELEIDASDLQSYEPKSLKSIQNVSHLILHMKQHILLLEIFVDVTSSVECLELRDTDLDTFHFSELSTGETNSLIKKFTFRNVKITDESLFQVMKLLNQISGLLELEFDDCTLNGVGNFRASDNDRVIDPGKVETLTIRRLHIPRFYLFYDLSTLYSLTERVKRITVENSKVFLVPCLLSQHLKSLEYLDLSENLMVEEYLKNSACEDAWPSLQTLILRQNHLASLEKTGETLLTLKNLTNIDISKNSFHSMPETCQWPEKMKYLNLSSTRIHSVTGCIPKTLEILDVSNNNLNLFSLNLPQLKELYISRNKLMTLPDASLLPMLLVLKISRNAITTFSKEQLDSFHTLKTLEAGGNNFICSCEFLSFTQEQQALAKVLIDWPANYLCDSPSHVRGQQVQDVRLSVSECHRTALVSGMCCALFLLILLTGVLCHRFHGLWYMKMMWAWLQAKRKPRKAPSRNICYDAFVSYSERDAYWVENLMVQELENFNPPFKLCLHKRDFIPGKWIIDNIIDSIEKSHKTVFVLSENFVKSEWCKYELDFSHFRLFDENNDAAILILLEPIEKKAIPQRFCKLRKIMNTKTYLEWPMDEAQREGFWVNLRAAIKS
T1 sequence (O60603 21-784): as above
T3 sequence (O60603 21-784): as above

| SMILES | IC50 [1] | Pam3CSK4-induced TLR2/1 response (remaining) [1] | IC50 [2] | chemical stability / sensitivity to oxidation [4] | TLR2-mediated NF-κB activation in primary screen, TLR2/1 (in words) [1] | TLR2-mediated NF-κB activation in primary screen, TLR2/6 (in words) [2] | also measured |
| --- | --- | --- | --- | --- | --- | --- | --- |
| CCOC(=O)c1cccc(NC(=O)c2ccc(O)cc2O)c1 [Compound 1, Ethyl 3‐(2,4‐dihydroxy‐benzamido)benzoate] | – | – | – | – | Except for 1, all selected compounds decreased | Except for 1, all selected compounds decreased | – |
| CCCc1cc(C(=O)Cc2ccc(C(=O)OCC)o2)c(O)cc1O [Compound 11] | – | – | – | – | abrogated the TLR2 response of both heterodimers almost completely | abrogated the TLR2 response of both heterodimers almost completely | cytotoxic effects / cell viability (in words) [3]: cytotoxic; lowest concentration reducing cell viability [3]: 50 µM |
| CCOC(=O)c1cccc(NC(=O)c2cc(O)cc(O)c2)c1 [Compound 6, Ethyl 3‐(3,5‐dihydroxy‐benzamido)benzoate] | 15.4 µM | less than 40% | 13.6 µM | chemically stable | abrogated the TLR2 response of both heterodimers almost completely | abrogated the TLR2 response of both heterodimers almost completely | agonistic TLR2 activity [5]: no agonistic activity; cytotoxic effects / cell viability (in words) [3]: nontoxic; lowest concentration reducing cell viability [3]: > 50 µM; influence on other TLR subtypes (IL-8 secretion) [6]: no influence on other TLR subtypes |
| COC(=O)c1ccc(CC(=O)c2ccc(O)cc2O)o1 [Compound 9] | 42.4 µM | less than 40% | 42.9 µM | – | – | – | Pam2CSK4-induced TLR2/6 response (remaining) [2]: less than 50% |
| CCOC(=O)c1cccc(NC(=O)c2cc(O)c(O)c(O)c2)c1 [Compound 8, ethyl 3‐(3,4,5‐trihydroxy‐benzamido)benzoate] | – | – | – | instantaneous decomposition | – | – | – |

Now from value to molecule, other results behind:

| IC50 [1] | Pam3CSK4-induced TLR2/1 response (remaining) [1] | IC50 [2] | chemical stability / sensitivity to oxidation [4] | SMILES | TLR2-mediated NF-κB activation in primary screen, TLR2/1 (in words) [1] | TLR2-mediated NF-κB activation in primary screen, TLR2/6 (in words) [2] | also measured |
| --- | --- | --- | --- | --- | --- | --- | --- |
| 44 µM | less than 40% | 40.7 µM | – | CCOC(=O)c1ccc(CC(=O)c2c(C)cc(O)cc2O)o1 [Compound 10] | – | – | Pam2CSK4-induced TLR2/6 response (remaining) [2]: less than 50% |
| – | – | – | instantaneous decomposition | CCOC(=O)c1cccc(NC(=O)c2ccc(O)c(O)c2O)c1 [Compound 7, ethyl 3‐(2,3,4‐trihydroxy‐benzamido)benzoate] | – | – | – |
| 44.9 µM | less than 40% | 61.9 µM | – | CCOC(=O)c1cccc(NC(=O)Cc2ccc(OC)c(OC)c2)c1 [Compound 4, Ethyl 3‐(2‐(3,4‐dimethoxyphenyl)acetamido)benzoate] | – | – | – |
